Publication PMC8232621, “Antimicrobial Activity of a Library of Thioxanthones and Their Potential as Efflux Pump Inhibitors” (Pharmaceuticals, 2021)
Several values for one entry are separate records, joined by “and”; a condition that tells them apart may be missing. Identical values can stand only once.

Key:
SE03 [1] = assay: Real-time ethidium bromide accumulation assay (efflux pump inhibition); type: cell-based, Salmonella enterica serovar Typhimurium SL1344; conditions: compounds 50 µM (compound 12 at 17 µM), CCCP 25 µM, minute 60, EB 1 µg/mL
Protocol: (§1) The relative fluorescence index (RFI) was calculated based on the means of relative fluorescence units, and theses RFIs are depicted in Table 4.
(§2) The compounds were evaluated for their ability to inhibit the efflux of EB, an efflux pump substrate, in Salmonella enterica serovar Typhimurium SE03 and S. aureus 272123 strains, through real-time fluorimetry, monitoring the intracellular accumulation of EB, an efflux pump substrate. This was determined by the automated method using a CLARIOstar Plus plate reader (BMG Labtech, Ortenberg, Germany). Reserpine and CCCP were applied at 25 µM as positive controls, and the solvent DMSO was applied at 1% v/v. The bacterial strains were incubated in an appropriate culture media (TSB–S. aureus 272123; LB-B–SE03) at 37 °C until they reached an optical density (OD) of 0.6 at 600 nm. The culture was centrifuged at 13,000× g for 3 min, and the pellet was washed and resuspended with phosphate buffered saline (PBS, pH 7.4). The suspension was centrifuged again in the same conditions and resuspended in PBS.
(§3) Then, 50 µL of this solution were transferred into a 96-well black microtiter plate (Greiner Bio-One Hungary Kft, Mosonmagyaróvár, Fertősor, Hungary), and 50 µL of bacterial suspension (OD600 = 0.6) were added to each well. The plates were placed into the CLARIOstar plate reader, and the fluorescence was monitored at excitation and emission wavelengths of 530 nm and 600 nm, respectively, every minute for one hour on a real-time basis. From the real-time data, the activity of the compounds, namely the relative fluorescence index (RFI) of the last time point (minute 60) of the EB accumulation assay, was calculated according to the following equation:(1) RFI=RFtreated−RFuntreated/RFuntreated where RFtreated is the relative fluorescence (RF) at the last time point of EB accumulation curve in the presence of the compound, and RFuntreated is the RF at the last time point of the EB accumulation curve of the untreated control, having only the solvent (DMSO) control. The accumulation curves were designed using Microsoft Excel®. The samples were tested in triplicate, and the RFI presented comes from the average of these three values. The accumulation graphs present the mean of the RF at the last time point. The standard deviation (SD) was calculated automatically and included in the RF graphs.

E. coli SA/2 = assay: Synergy with cefotaxime (antibiotic MIC in presence of compound); type: cell-based
Description: (§4) The referred library of thioxanthones was initially tested for their antimicrobial activity against six bacterial strains: the Gram-negative Escherichia coli ATCC 25922, Pseudomonas aeruginosa ATCC 27853 and Salmonella enterica serovar Typhimurium SL1344 (SE03), with the acrA gene deleted, and the Gram-positive Staphylococcus aureus ATCC 29213, Enterococcus faecalis ATCC 29212 and the methicillin and ofloxacin-resistant clinical isolate S. aureus 272123. For the synergy assay, two clinically relevant isolates were used: the extended-spectrum β-lactamase (ESBL)-producing E. coli SA/2 [23] and the vancomycin-resistant E. faecalis (VRE) B3/101 [23]. The antibiotics used were cefotaxime (CTX) and vancomycin (VAN), respectively.
The combined effect of the compounds and clinically relevant antimicrobial drugs was evaluated by determining the antibiotic’s MIC in the presence of each compound. […] The antibiotic tested was serially diluted, whereas the concentration of each compound was kept fixed. […]

EZF + CV026 = assay: Quorum sensing inhibition assay (pigment production), parallel inoculation; type: cell-based; conditions: disk with 8 µL of 10 mM solution, read-out: Quorum Sensing Inhibition (mm) ± SD
Protocol: (§5) Concerning the QS inhibition assay, the sensor strain Chromobacterium violaceum CV026 and the AHL producer strain Sphingomonas paucimobilis Ezf 10-17 (EZF) were inoculated as parallel lines, and the AHL producers Chromobacterium violaceum wild-type 85 (wt85) and Serratia marcescens AS-1 were inoculated as a single line. The interaction between the strains and compounds 2–18 was evaluated as the reduction of pigment production, in millimeters (mm) (Table 5) with promethazine (PMZ) as a positive control.
(§6) The QS inhibitory effect of the compounds was examined on the EZF and the sensor CV026 strains, on the wt85 strain, and on S. marcescens. The method used was the parallel inoculation method, where pair combinations of the used sensor strain CV026 and the N-acyl-homoserine lactone (AHL) producing strain EZF were inoculated directly onto the LB*-A agar surface in parallel, at an approximate distance of 5 mm from each other. S. marcescens AS-1 and wt85 were inoculated as a single line. Filter paper disks (7 mm in diameter) were placed on the center of the inoculated line(s) and impregnated with 8 µL of a solution of 10 mM of the compounds. […] The agar plates were incubated at room temperature (20 °C) for 24−48 h. The QS inhibition was accessed visually, through the inhibition of pigment production. The discolored, but intact, bacterial colonies were measured with a ruler.

SE03 [2] = assay: Antibacterial activity, broth microdilution MIC; type: cell-based, Salmonella enterica serovar Typhimurium SL1344; conditions: Salmonella enterica, read-out: Minimum Inhibitory Concentration (MIC)
Description: as §4
(§7) The minimum inhibitory concentration (MIC) for each compound was determined by broth microdilution method in a 96-well plate according to the Clinical and Laboratory Standard Institute (CLSI) guidelines. The medium used was MHB II. The concentrations tested ranged from 100 µM to 0.195 µM and were prepared from a stock solution of 10 mM in DMSO, for S. aureus 272123 and SE03; for the other strains, the concentrations tested ranged from 64 µg/mL to 4 µg/mL and were prepared from a stock solution of 10 mg/mL in DMSO. DMSO was used in subinhibitory concentrations (1% v/v). The MIC was determined by visual inspection.

wt85 = assay: Quorum sensing inhibition assay (pigment production); type: cell-based, Chromobacterium violaceum wild-type 85; conditions: Chromobacterium violaceum, read-out: Quorum Sensing Inhibition (mm) ± SD
Protocol: as §5, §6

S. aureus 272123 [3] = assay: Antibacterial activity, broth microdilution MIC; type: cell-based; conditions: Staphylococcus aureus, 272123, read-out: Minimum Inhibitory Concentration (MIC)
Description: as §4, §7

S. aureus 272123 [4] = assay: Inhibition of biofilm formation (crystal violet); type: cell-based, Staphylococcus aureus; conditions: Staphylococcus aureus; S. aureus 272123; compounds 100 µM (compound 12 at 50 µM); 48 h; read-out: Biofilm Inhibition (%) ± SD
Protocol: Efflux mechanisms are one of the factors that can lead to biofilm-mediated resistance, along with slow growth and reduced penetration due to production of extracellular polysaccharides. […] Additionally, they can also modulate QS, through an influence in the transport of QS signal molecules. Thioxanthones 2–18 were tested for their potential for inhibiting biofilm formation by S. aureus ATCC 29213 and the multi-resistant S. aureus 272123. The biofilm inhibition, presented in percentage (%), was calculated based on the mean of absorbance units. Reserpine, which has previously been described as both an efflux pump inhibitor and an inhibitor of biofilm formation in Gram-positive bacteria was used as control in both strains.
The thioxanthone derivatives were tested for their ability to decrease the formation of biofilm. The bacterial strains used were the Gram-positive S. aureus […] and S. aureus 272123. The detection of the biofilm formation was carried out using the dye crystal violet (CV; 0.1% v/v). The initial inoculum was incubated in TSB overnight, and then diluted to an OD600 of 0.1. […] This meant that compound 12 was added at 50 µM, while the rest of the compounds were added at the concentration of 100 µM. The final volume in each well was 200 µL. Reserpine was used as a positive control, as it was the same compound used in the efflux pump inhibition assay and it has shown activity in the inhibition of biofilm formation in S. aureus strains. The plates were incubated at 30 °C for 48 h, with gentle stirring (100 rpm). After this incubation period, the TSB medium was discarded, and the plates were washed with tap water to remove unattached cells. Afterwards, 200 µL of a 0.1% v/v CV solution were added to the wells and incubated for 15 min at room temperature. Then, the CV solution was removed from the wells, and the plates were washed again with tap water, and 200 µL of a 70% ethanol solution was added to the wells. The biofilm formation was determined by measuring the OD600 using a Multiscan EX ELISA plate reader (Thermo Labsystems, Cheshire, WA, USA). The anti-biofilm effect of the compounds was expressed in the percentage (%) of decrease of biofilm formation.

S. marcescens = assay: Quorum sensing inhibition assay (pigment production); type: cell-based, Serratia marcescens AS-1; conditions: Serratia marcescens, read-out: Quorum Sensing Inhibition (mm) ± SD
Protocol: as §5, §6

S. aureus ATCC 29213 = assay: Inhibition of biofilm formation (crystal violet); type: cell-based; conditions: Staphylococcus aureus, ATCC29213, 48 h, S. aureus ATCC 29213, compounds 100 µM (compound 12 at 50 µM), read-out: Biofilm Inhibition (%) ± SD
S. aureus 272123 [5] = assay: Real-time ethidium bromide accumulation assay (efflux pump inhibition); type: cell-based, Staphylococcus aureus; set-up: key: RFI = (RFtreated − RFuntreated)/RFuntreated at minute 60; conditions: compounds 50 µM, reserpine 25 µM, minute 60, EB 1 µg/mL
Protocol: as §1, §2, §3

[6] = Cytotoxicity in NIH/3T3 cell line (MTT assay); type: cell-based; conditions: mouse, NIH/3T3 mouse fibroblast cells, read-out: IC50 (µM) ± SD, cytotoxicity
Protocol: Before each cytotoxicity assay using this cell line, cells were seeded in untreated 96-well flat-bottom microtiter plates, following a 4-hour incubation period in a humidified atmosphere (5% CO2, 95% air) at 37 °C [47]. […] Prior to the assay, the cells were seeded for 4 h using 1 × 10^4 cells/well. […] The plates were incubated for 24 h, after which a solution of MTT in PBS was added to each well and incubated for another 4 h. After this, 100 μL of SDS (10% in a 0.01 M HCl solution) was added to each well and incubated overnight at 37 °C. Doxorubicin was used as a positive control. Cell growth was determined in quadruplicate by measuring OD at λ = 540 nm (reference 630 nm) in a Multiscan EX ELISA reader (Thermo Labsystems, Cheshire, WA, USA). […] (2) 100−ODsample−ODmedium control/ODcell control−ODmedium control×100 […]

Row | SMILES | RFI ± SD (SE03 [1]) | CTX MIC (antibiotic alone) (E. coli SA/2) | zone of inhibition at 10000 µM (EZF + CV026) [mm] | MIC (SE03 [2]) [µM] | zone of inhibition at 10000 µM (wt85) [mm] | MIC (S. aureus 272123 [3]) [µM] | inhibition at 100 µM (S. aureus 272123 [4]) [%] | zone of inhibition at 10000 µM (S. marcescens) [mm] | inhibition at 100 µM (S. aureus ATCC 29213) [%] | RFI ± SD (S. aureus 272123 [5]) | IC50 at 24 h [6] [µM]
1 | N#CC(C#N)=NNc1cccc(Cl)c1 [CCCP, carbonyl cyanide 3-chlorophenylhydrazone, reference compound] | 0.23 ± 0.04 | – | – | – | – | – | – | – | – | – | –
2 | CO/N=C(\C(=O)N[C@@H]1C(=O)N2C(C(=O)O)=C(COC(C)=O)CS[C@H]12)c1csc(N)n1 [CTX, cefotaxime, reference compound] | – | 1124 µM and 512 µg/mL | – | – | – | – | – | – | – | – | –
3 | CCCOc1ccc(OC)c2c(=O)c3ccccc3sc12 [Compound 4] | −0.10 ± 0.05 | – | 0 | > 100 | 0 | > 100 | 47.9 ± 1.08 | 0 | 0.17 ± 0.83 | 0.11 ± 0.26 | –
4 | CCCOc1ccc(NCCc2nc3ccccc3[nH]2)c2c(=O)c3ccccc3sc12 [Compound 5] | −0.20 ± 0.01 | – | 0 | > 100 | 0 | > 100 | 0 | 0 | 0.37 ± 0.47 | −0.13 ± 0.04 | –
5 | CCCOc1ccc(NCCc2ccc([N+](=O)[O-])cc2)c2c(=O)c3ccccc3sc12 [Compound 6] | −0.20 ± 0.01 | – | 0 | > 100 | 0 | > 100 | 0 | 0 | 0 | 0.09 ± 0.11 | –
6 | CCCOc1ccc(N2CCN(C(C)=O)CC2)c2c(=O)c3ccccc3sc12 [Compound 7] | 0.49 ± 0.11 | – | 30 ± 0.5 | > 100 | 0 | > 100 | 47.1 ± 7.54 | 0 | 0 | −0.10 ± 0.02 | –
7 | COc1cccc2c1C(=O)c1c(O)c3c(c(O)c1C2=O)C[C@@](O)(C(=O)CO)C[C@@H]3O[C@H]1C[C@H](N)[C@H](O)[C@H](C)O1 [Doxorubicin, doxorubicin, reference compound] | – | – | – | – | – | – | – | – | – | – | 12.1 ± 0.81
8 | CC(CN1c2ccccc2Sc2ccccc21)N(C)C (centres unmarked) [PMZ, promethazine, reference compound] | – | – | 41 ± 0.5 | – | 40 ± 0.1 | – | – | 18 ± 0.8 | – | – | –
9 | COC(=O)[C@H]1[C@H]2C[C@@H]3c4[nH]c5cc(OC)ccc5c4CCN3C[C@H]2C[C@@H](OC(=O)c2cc(OC)c(OC)c(OC)c2)[C@@H]1OC [Reserpine, reserpine, reference compound] | – | – | – | – | – | – | – | – | 30.4 | 0.50 ± 0.04 | –
